# Measurements: patent US10034861B2 (priority 2016, dated 2018)
# Read-outs that look alike come from different tables or passages of the source.
# Assays:
# Assay type in all cases: biochemical
# [1] = biological target: PDE1C (Homo sapiens (Human), UniProt Q14123); assay: biochemical
# From the text: (§1) Table 1 lists the IC50 value for inhibition of PDE1 by the compounds of the invention. […] PDE1 assays are described in the Experimental Section.
# [2] = biological target: PDE1A (Homo sapiens (Human), UniProt P54750); assay: biochemical
# From the text: as §1
# [3] = biological target: PDE1B (Homo sapiens (Human), UniProt Q01064); assay: PDE1 inhibition assay (PDE1B); conditions: 15 nM tritium labelled cAMP, 1 hr at room temperature, SPA beads
# From the text: as §1
# [4] = 15 nM tritium labelled cAMP, 1 hr at room temperature, SPA beads
# Chain of PDE1B (Q01064 whole entry): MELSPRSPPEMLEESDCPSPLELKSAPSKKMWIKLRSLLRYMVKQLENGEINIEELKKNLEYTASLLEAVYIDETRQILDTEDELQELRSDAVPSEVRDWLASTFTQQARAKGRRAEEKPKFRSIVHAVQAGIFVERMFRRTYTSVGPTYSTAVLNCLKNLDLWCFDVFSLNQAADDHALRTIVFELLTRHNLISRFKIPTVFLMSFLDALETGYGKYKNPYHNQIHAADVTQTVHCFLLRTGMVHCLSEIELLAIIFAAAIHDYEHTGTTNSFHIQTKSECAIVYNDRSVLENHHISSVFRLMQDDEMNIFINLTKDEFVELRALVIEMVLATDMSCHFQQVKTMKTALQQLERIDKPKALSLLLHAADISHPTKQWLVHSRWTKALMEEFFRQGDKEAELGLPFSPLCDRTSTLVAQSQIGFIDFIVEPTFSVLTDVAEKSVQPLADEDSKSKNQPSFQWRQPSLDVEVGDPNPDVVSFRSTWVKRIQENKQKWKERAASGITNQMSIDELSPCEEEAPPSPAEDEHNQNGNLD
# Chain of PDE1A (P54750 whole entry): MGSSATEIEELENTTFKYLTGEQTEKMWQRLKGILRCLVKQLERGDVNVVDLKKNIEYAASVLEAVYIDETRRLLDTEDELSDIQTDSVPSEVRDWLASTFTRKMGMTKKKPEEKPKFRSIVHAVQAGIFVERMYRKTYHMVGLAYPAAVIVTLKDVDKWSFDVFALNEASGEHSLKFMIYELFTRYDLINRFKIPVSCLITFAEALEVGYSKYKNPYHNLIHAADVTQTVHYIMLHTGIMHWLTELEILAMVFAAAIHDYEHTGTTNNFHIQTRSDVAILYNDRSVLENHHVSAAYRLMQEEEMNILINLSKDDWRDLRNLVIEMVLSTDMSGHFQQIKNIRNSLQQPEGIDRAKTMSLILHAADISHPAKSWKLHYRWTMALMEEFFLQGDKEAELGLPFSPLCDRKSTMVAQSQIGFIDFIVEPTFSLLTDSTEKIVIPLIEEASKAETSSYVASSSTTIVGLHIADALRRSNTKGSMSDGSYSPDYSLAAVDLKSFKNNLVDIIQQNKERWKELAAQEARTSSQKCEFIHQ
# Chain of PDE1C (Q14123 whole entry): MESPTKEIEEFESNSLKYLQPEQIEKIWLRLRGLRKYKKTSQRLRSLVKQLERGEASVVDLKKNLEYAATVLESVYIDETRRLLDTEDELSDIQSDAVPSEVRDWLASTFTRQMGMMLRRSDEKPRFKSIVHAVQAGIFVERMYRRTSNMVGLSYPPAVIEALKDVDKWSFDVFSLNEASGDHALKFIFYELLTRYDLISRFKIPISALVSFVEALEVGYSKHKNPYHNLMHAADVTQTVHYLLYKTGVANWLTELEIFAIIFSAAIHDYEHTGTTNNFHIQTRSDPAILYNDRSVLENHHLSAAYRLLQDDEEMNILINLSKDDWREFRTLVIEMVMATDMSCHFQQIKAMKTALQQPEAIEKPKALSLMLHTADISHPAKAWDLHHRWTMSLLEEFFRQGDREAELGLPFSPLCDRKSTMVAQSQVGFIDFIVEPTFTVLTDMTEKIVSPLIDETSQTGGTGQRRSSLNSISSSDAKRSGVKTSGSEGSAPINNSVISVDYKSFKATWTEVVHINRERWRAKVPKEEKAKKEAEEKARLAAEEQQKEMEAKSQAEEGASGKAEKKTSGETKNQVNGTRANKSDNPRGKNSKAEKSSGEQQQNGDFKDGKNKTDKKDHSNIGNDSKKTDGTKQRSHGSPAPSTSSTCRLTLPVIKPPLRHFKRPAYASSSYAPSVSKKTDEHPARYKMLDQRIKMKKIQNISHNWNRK
smiles,measurement,setting,value
"CCOc1ncccc1-c1cc(NCc2ccnc(C)c2)c2c(n1)c(C)nn2C(C)C [Example 103, 5-(2-ethoxy-3-pyridyl)-1-isopropyl-3-methyl-N-[(2-methyl-4-pyridyl)methyl]pyrazolo[4,3-b]pyridin-7-amine]",IC50,[1]; [4],17 nM
same,IC50,[2]; [4],5.4 nM
same,IC50,"[3]; read-out: PDE1B, IC50",2.9 nM
"CCOc1ncccc1-c1cc(NCc2nnc(C)s2)c2c(n1)c(C)nn2C(C)C [Example 33, 5-(2-ethoxy-3-pyridyl)-1-isopropyl-3-methyl-N-[(5-methyl-1,3,4-thiadiazol-2-yl)methyl]pyrazolo[4,3-b]pyridin-7-amine]",IC50,[1]; [4],7.9 nM
same,IC50,[2]; [4],1.6 nM
same,IC50,"[3]; read-out: PDE1B, IC50",0.41 nM
"CCOc1ncccc1-c1cc(NCc2cncc(OC)n2)c2c(n1)c(C)nn2C(C)C [Example 82, 5-(2-ethoxy-3-pyridyl)-1-isopropyl-N-[(6-methoxypyrazin-2-yl)methyl]-3-methyl-pyrazolo[4,3-b]pyridin-7-amine]",IC50,[1]; [4],35 nM
same,IC50,[2]; [4],16 nM
same,IC50,"[3]; read-out: PDE1B, IC50",1 nM
"Cc1nn(C(C)C)c2c(NCc3cnn(C)c3)cc(-c3cnnn3C)nc12 [Example 169, 1-isopropyl-3-methyl-N-[(1-methylpyrazol-4-yl)methyl]-5-(3-methyltriazol-4-yl)pyrazolo[4,3-b]pyridin-7-amine]",IC50,[1]; [4],170 nM
same,IC50,[2]; [4],610 nM
same,IC50,"[3]; read-out: PDE1B, IC50",85 nM
"Cc1cnc(-c2cc(NCc3cnn(C)c3)c3c(n2)c(C)nn3C(C)C)s1 [Example 148, 1-isopropyl-3-methyl-N-[(1-methylpyrazol-4-yl)methyl]-5-(5-methylthiazol-2-yl)pyrazolo[4,3-b]pyridin-7-amine]",IC50,[1]; [4],86 nM
same,IC50,[2]; [4],110 nM
same,IC50,"[3]; read-out: PDE1B, IC50",58 nM
"CCOc1ncccc1-c1cc(CCc2cncc(OC)c2)c2c(n1)c(C)nn2C(C)C [Example 159, 5-(2-ethoxy-3-pyridyl)-1-isopropyl-7-[2-(5-methoxy-3-pyridyl)ethyl]-3-methyl-pyrazolo[4,3-b]pyridine]",IC50,[1]; [4],1600 nM
same,IC50,[2]; [4],270 nM
same,IC50,"[3]; read-out: PDE1B, IC50",70 nM
"CCOc1ncccc1-c1cc(NCc2nc[nH]n2)c2c(n1)c(C)nn2C(C)CC (single isomer, unassigned) [Example 144, 5-(2-ethoxy-3-pyridyl)-3-methyl-1-[1-methylpropyl]-N-(1H-1,2,4-triazol-3-ylmethyl)pyrazolo[4,3-b]pyridin-7-amine]",IC50,[1]; [4],23 nM
same,IC50,[2]; [4],14 nM
same,IC50,"[3]; PDE1B, IC50 (nM)",1.1 nM
"CCOc1ncccc1-c1cc(NCc2cnn(C)c2)c2c(n1)c(C)nn2CC [Example 48, 5-(2-ethoxypyridin-3-yl)-1-ethyl-3-methyl-N-((1-methyl-1H-pyrazol-4-yl)methyl)-1H-pyrazolo[4,3-b]pyridin-7-amine]",IC50,[1]; [4],170 nM
same,IC50,[2]; [4],38 nM
same,IC50,"[3]; read-out: PDE1B, IC50",6.3 nM
"Cc1ncoc1-c1cc(NCc2cnn(C)c2)c2c(n1)c(C)nn2C(C)C [Example 200, 1-isopropyl-3-methyl-N-((1-methyl-1H-pyrazol-4-yl)methyl)-5-(4-methyloxazol-5-yl)-1H-pyrazolo[4,3-b]pyridin-7-amine]",IC50,[1]; [4],110 nM
same,IC50,[2]; [4],98 nM
same,IC50,"[3]; read-out: PDE1B, IC50",18 nM
"CCOc1ncccc1-c1cc(NCc2ncn(C)n2)c2c(cnn2C(C)CC)n1 (single isomer, unassigned) [Example 141, 5-(2-ethoxy-3-pyridyl)-1-[1-methylpropyl]-N-[(1-methyl-1,2,4-triazol-3-yl)methyl]pyrazolo[4,3-b]pyridin-7-amine]",IC50,[1],76 nM
same,IC50,[2]; [4],44 nM
same,IC50,"[3]; PDE1B, IC50 (nM)",2.2 nM
"CCOc1ncccc1-c1cc(NCc2cn(C)c(C)n2)c2c(n1)c(C)nn2C(C)C [Example 51, N-((1,2-dimethyl-1H-imidazol-4-yl)methyl)-5-(2-ethoxypyridin-3-yl)-1-isopropyl-3-methyl-1H-pyrazolo[4,3-b]pyridin-7-amine 2,2,2-trifluoroacetate]",IC50,[1]; [4],88 nM
same,IC50,[2]; [4],53 nM
same,IC50,"[3]; read-out: PDE1B, IC50",9.1 nM
"CCOc1ncccc1-c1cc(NCc2ccn(C)n2)c2c(cnn2C(C)C)n1 [Example 19, 5-(2-ethoxypyridin-3-yl)-1-isopropyl-N-((1-methyl-1H-pyrazol-3-yl)methyl)-1H-pyrazolo[4,3-b]pyridin-7-amine]",IC50,[1]; [4],150 nM
same,IC50,[2]; [4],66 nM
same,IC50,"[3]; read-out: PDE1B, IC50",4.6 nM
"Cc1sccc1-c1cc(NCc2cnn(C)c2)c2c(n1)c(C)nn2C(C)C [Example 65, 1-isopropyl-3-methyl-N-[(1-methylpyrazol-4-yl)methyl]-5-(2-methyl-3-thienyl)pyrazolo[4,3-b]pyridin-7-amine]",IC50,[2]; [4],7.9 nM
same,IC50,"[3]; read-out: PDE1B, IC50",1.2 nM
"CCOc1ncccc1-c1cc(NCc2cnn(C(F)F)c2)c2c(n1)c(C)nn2C(C)C [Example 165, N-[[1-(difluoromethyl)pyrazol-4-yl]methyl]-5-(2-ethoxy-3-pyridyl)-1-isopropyl-3-methyl-pyrazolo[4,3-b]pyridin-7-amine]",IC50,[2],73 nM
same,IC50,"[3]; PDE1B, IC50 (nM)",5.9 nM
"Cc1nn(C(C)C)c2c(NCc3cnn(C)c3)cc(-c3cccn(C)c3=O)nc12 [Example 49, 3-(1-isopropyl-3-methyl-7-(((1-methyl-1H-pyrazol-4-yl)methyl)amino)-1H-pyrazolo[4,3-b]pyridin-5-yl)-1-methylpyridin-2(1H)-one]",IC50,[1]; [4],420 nM
same,IC50,"[3]; read-out: PDE1B, IC50",20 nM
"CCOc1ncccc1-c1cc(NCc2nc[nH]n2)c2c(n1)c(C)nn2C(C)C [Example 98, 5-(2-ethoxy-3-pyridyl)-1-isopropyl-3-methyl-N-(1H-1,2,4-triazol-3-ylmethyl)pyrazolo[4,3-b]pyridin-7-amine]",IC50,[1]; [4],21 nM
same,IC50,"[3]; read-out: PDE1B, IC50",0.58 nM
"CCOc1ncccc1-c1cc(NCc2cnc(C)o2)c2c(n1)c(C)nn2C(C)CC (single isomer, unassigned) [Example 133, 5-(2-ethoxy-3-pyridyl)-3-methyl-N-[(2-methyloxazol-5-yl)methyl]-1-[1-methylpropyl]pyrazolo[4,3-b]pyridin-7-amine]",IC50,"[3]; PDE1B, IC50 (nM)",1.3 nM
CCOc1ncccc1-c1cc(NCc2ccc(=O)n(C)c2)c2c(n1)c(C)nn2C(C)C [Example 45],IC50,"[3]; read-out: PDE1B, IC50",0.62 nM
"CCOc1ncccc1-c1cc(NCc2nc(C)co2)c2c(n1)c(C)nn2C(C)C [Example 50, 5-(2-ethoxypyridin-3-yl)-1-isopropyl-3-methyl-N-((4-methyloxazol-2-yl)methyl)-1H-pyrazolo[4,3-b]pyridin-7-amine 2,2,2-trifluoroacetate]",IC50,[2]; [4],9 nM
same,IC50,"[3]; read-out: PDE1B, IC50",0.5 nM
"CCOc1ncccc1-c1cc(NCc2nnn(C)n2)c2c(n1)c(C)nn2C(C)CC (single isomer, unassigned) [Example 127, 5-(2-ethoxy-3-pyridyl)-3-methyl-1-[1-methylpropyl]-N-[(2-methyltetrazol-5-yl)methyl]pyrazolo[4,3-b]pyridin-7-amine]",IC50,"[3]; PDE1B, IC50 (nM)",0.31 nM
"CCOc1ncccc1-c1cc(NCc2nc(C)cs2)c2c(n1)c(C)nn2C(C)C [Example 29, 5-(2-ethoxypyridin-3-yl)-1-isopropyl-3-methyl-N-((4-methylthiazol-2-yl)methyl)-1H-pyrazolo[4,3-b]pyridin-7-amine]",IC50,"[3]; read-out: PDE1B, IC50",1.1 nM
"CCOc1ncccc1-c1cc(NCc2cc[nH]n2)c2c(n1)c(C)nn2C(C)CC (single isomer, unassigned) [Example 119, 5-(2-ethoxy-3-pyridyl)-3-methyl-1-[1-methylpropyl]-N-(1H-pyrazol-3-ylmethyl)pyrazolo[4,3-b]pyridin-7-amine]",IC50,[1],29 nM
same,IC50,"[3]; PDE1B, IC50 (nM)",0.56 nM
